Reference: PubChem BioAssay (NCI)
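Interpolation was linear, between the two tested concentrations surrounding the appropriate level; five concentrations were tested over 48 hours in 96-well plates. GI50 marks 50% less growth. TGI marks complete inhibition of growth.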

Legend:
Assay in all cases: inhibition of tumour cell growth, NCI panel, 48 h
[1] = test system: 786-0 renal
[2] = test system: A498 renal
[3] = test system: A549 NSCLC
[4] = test system: ACHN renal
[5] = test system: BT-549 breast
[6] = test system: CAKI-1 renal
[7] = test system: COLO 205 colon
[8] = test system: DU-145 prostate
[9] = test system: EKVX NSCLC
[10] = test system: HCT-116 colon
[11] = test system: HCT-15 colon
[12] = test system: HL-60(TB) leukemia
[13] = test system: HOP-62 NSCLC
[14] = test system: HOP-92 NSCLC
[15] = test system: HS 578T breast
[16] = test system: HT29 colon
[17] = test system: IGROV1 ovarian
[18] = test system: K-562 leukemia
[19] = test system: KM12 colon
[20] = test system: LOX IMVI melanoma
[21] = test system: M14 melanoma
[22] = test system: MALME-3M melanoma
[23] = test system: MCF7 breast
[24] = test system: MDA-MB-231 breast
[25] = test system: MDA-MB-435
[26] = test system: MOLT-4 leukemia
[27] = test system: NCI-H226 lung
[28] = test system: NCI-H23 lung
[29] = test system: NCI-H460 lung
[30] = test system: NCI-H522 lung
[31] = test system: OVCAR-4 ovarian
[32] = test system: OVCAR-5 ovarian
[33] = test system: OVCAR-8 ovarian
[34] = test system: PC-3 prostate
[35] = test system: RPMI-8226 leukemia
[36] = test system: RXF 393 renal
[37] = test system: SF-268 CNS
[38] = test system: SF-295 CNS
[39] = test system: SF-539 CNS
[40] = test system: SK-MEL-2 melanoma
[41] = test system: SK-MEL-28 melanoma
[42] = test system: SK-MEL-5 melanoma
[43] = test system: SK-OV-3 ovarian
[44] = test system: SN12C renal
[45] = test system: SNB-19 CNS
[46] = test system: SNB-75 CNS
[47] = test system: SW-620 colon
[48] = test system: T-47D breast
[49] = test system: TK-10 renal
[50] = test system: U251 CNS
[51] = test system: UACC-257 melanoma
[52] = test system: UACC-62 melanoma
[53] = test system: UO-31 renal
[54] = test system: CCRF-CEM leukemia
[55] = test system: HCC-2998 colon
[56] = test system: NCI/ADR-RES ovarian
[57] = test system: OVCAR-3 ovarian
[58] = test system: SR leukemia

## COc1cc2c(/C=C3/C(=O)Nc4ccc(O)cc43)c(Cl)[nH]c2cc1C
[1]
  TGI: 16.7 µM
[2]
  TGI: 24.6 µM
[3]
  TGI: 32.9 µM
[4]
  TGI: 1.64 µM
[5]
  TGI: 3.84 µM
[6]
  TGI: 3.19 µM
[7]
  TGI: 0.894 µM
[8]
  TGI: 7.55 µM
[9]
  TGI: 26.8 µM
[10]
  TGI: 6.61 µM
[11]
  TGI: 1.17 µM
[12]
  TGI: 4.08 µM
[13]
  TGI: 4.55 µM
[14]
  TGI: 42.6 µM
[15]
  TGI: 28.5 µM
[16]
  TGI: 5.42 µM
[17]
  TGI: 20.5 µM
[18]
  TGI: 16 µM
[19]
  TGI: 5.35 µM
[20]
  TGI: 11.9 µM
[21]
  TGI: 2.02 µM
[22]
  TGI: 1.38 µM
[23]
  TGI: > 100 µM
[24]
  TGI: 4.25 µM
[25]
  TGI: 0.0441 µM
[26]
  TGI: 0.387 µM
[27]
  TGI: 3.77 µM
[28]
  TGI: 3.78 µM
[29]
  TGI: 19.2 µM
[30]
  TGI: 19.5 µM
[31]
  TGI: 3.38 µM
[32]
  TGI: 30.8 µM
[33]
  TGI: 7.77 µM
[34]
  TGI: 22.2 µM
[35]
  TGI: 1.34 µM
[36]
  TGI: 30.5 µM
[37]
  TGI: 26.4 µM
[38]
  TGI: 13.5 µM
[39]
  TGI: 0.185 µM
[40]
  TGI: 29.2 µM
[41]
  TGI: 0.0526 µM
[42]
  TGI: 3.29 µM
[43]
  TGI: 2.48 µM
[44]
  TGI: 3.06 µM
[45]
  TGI: 22.3 µM
[46]
  TGI: 20 µM
[47]
  TGI: 20 µM
[48]
  TGI: 7.85 µM
[49]
  TGI: 26.1 µM
[50]
  TGI: 2.99 µM
[51]
  TGI: 21.9 µM
[52]
  TGI: 3.08 µM
[53]
  TGI: 21.1 µM

## Cc1cc(C(=O)NC(C)(C)C)cc(C#Cc2ccc3c4c(oc3c2)C(C)(C)c2cc(NS(C)(=O)=O)ccc2C4=O)n1
[1]
  GI50: 1.7 µM
  TGI: 12.5 µM
[2]
  GI50: 2.1 µM
  TGI: > 100 µM
[3]
  GI50: 3.01 µM
  TGI: > 100 µM
[4]
  GI50: 1.78 µM
  TGI: > 100 µM
[5]
  GI50: 1.26 µM
  TGI: 8.1 µM
[6]
  GI50: 2.51 µM
  TGI: > 100 µM
[54]
  GI50: 2.12 µM
  TGI: > 100 µM
[7]
  GI50: 1.34 µM
  TGI: 5.5 µM
[8]
  GI50: 3.17 µM
  TGI: > 100 µM
[9]
  GI50: 4.98 µM
  TGI: > 100 µM
[55]
  GI50: 3.06 µM
  TGI: > 100 µM
[10]
  GI50: 1.69 µM
  TGI: > 100 µM
[11]
  GI50: 1.93 µM
  TGI: > 100 µM
[13]
  GI50: 2.31 µM
  TGI: > 100 µM
[14]
  GI50: 0.102 µM
  TGI: 2.44 µM
[16]
  GI50: 1.2 µM
  TGI: > 100 µM
[17]
  GI50: 2.59 µM
  TGI: > 100 µM
[18]
  GI50: 2.31 µM
  TGI: > 100 µM
[19]
  TGI: 40.7 µM
[20]
  GI50: 2.59 µM
  TGI: > 100 µM
[21]
  GI50: 1.26 µM
  TGI: 18.6 µM
[22]
  GI50: 1.53 µM
  TGI: > 100 µM
[23]
  GI50: 1.76 µM
  TGI: > 100 µM
[24]
  GI50: 3.49 µM
  TGI: > 100 µM
[25]
  GI50: 0.518 µM
  TGI: 21.1 µM
[26]
  GI50: 2.39 µM
  TGI: > 100 µM
[28]
  GI50: 2.63 µM
  TGI: > 100 µM
[29]
  GI50: 2.31 µM
  TGI: > 100 µM
[30]
  GI50: 4.54 µM
  TGI: > 100 µM
[56]
  GI50: 2.86 µM
  TGI: > 100 µM
[57]
  GI50: 2.82 µM
  TGI: 31.8 µM
[31]
  GI50: 3.2 µM
  TGI: > 100 µM
[32]
  GI50: 1.33 µM
  TGI: > 100 µM
[33]
  GI50: 3.09 µM
  TGI: > 100 µM
[34]
  GI50: 2.96 µM
  TGI: > 100 µM
[35]
  GI50: 1.11 µM
  TGI: 4.67 µM
[36]
  GI50: 0.535 µM
  TGI: 3.34 µM
[37]
  GI50: 3.34 µM
  TGI: > 100 µM
[38]
  GI50: 2.12 µM
  TGI: 5.64 µM
[40]
  GI50: 1.98 µM
  TGI: 7.87 µM
[41]
  GI50: 1.93 µM
  TGI: > 100 µM
[42]
  GI50: 1.84 µM
  TGI: 5.31 µM
[44]
  GI50: 1.95 µM
  TGI: > 100 µM
[45]
  GI50: 3.23 µM
  TGI: > 100 µM
[46]
  GI50: 1.22 µM
  TGI: 22.4 µM
[47]
  GI50: 1.03 µM
  TGI: > 100 µM
[48]
  GI50: 2.41 µM
  TGI: > 100 µM
[49]
  GI50: 3.99 µM
  TGI: > 100 µM
[50]
  GI50: 3.1 µM
  TGI: > 100 µM
[52]
  GI50: 1.4 µM
  TGI: > 100 µM
[53]
  GI50: 1.2 µM
  TGI: > 100 µM

## O=c1cc(-c2ccccc2)[nH]c2ccc(N3CCCCC3)cc12
[1]
  TGI: 43.1 µM
[4]
  TGI: > 100 µM
[5]
  TGI: > 100 µM
[6]
  TGI: > 100 µM
[7]
  TGI: > 100 µM
[8]
  TGI: > 30.3 µM
[9]
  TGI: > 100 µM
[55]
  TGI: > 22.5 µM
[11]
  TGI: > 100 µM
[12]
  TGI: < 0.028 µM
[13]
  TGI: 47.4 µM
[14]
  TGI: 53.6 µM
[15]
  TGI: > 100 µM
[17]
  TGI: > 100 µM
[18]
  TGI: > 100 µM
[19]
  TGI: 0.0909 µM
[20]
  TGI: > 100 µM
[21]
  TGI: > 100 µM
[22]
  TGI: > 100 µM
[23]
  TGI: > 67.9 µM
[24]
  TGI: > 100 µM
[26]
  TGI: > 100 µM
[27]
  TGI: 0.0706 µM
[28]
  TGI: 6.86 µM
[29]
  TGI: > 100 µM
[30]
  TGI: > 100 µM
[57]
  TGI: 2.89 µM
[31]
  TGI: > 100 µM
[32]
  TGI: > 100 µM
[33]
  TGI: > 44.9 µM
[34]
  TGI: > 100 µM
[35]
  TGI: > 100 µM
[37]
  TGI: > 53.2 µM
[38]
  TGI: 0.0474 µM
[39]
  TGI: 0.549 µM
[40]
  TGI: > 100 µM
[41]
  TGI: > 100 µM
[42]
  TGI: 4.2 µM
[43]
  TGI: > 59.7 µM
[44]
  TGI: > 100 µM
[45]
  TGI: > 100 µM
[58]
  TGI: > 100 µM
[47]
  TGI: > 100 µM
[48]
  TGI: > 100 µM
[49]
  TGI: > 100 µM
[50]
  TGI: > 45.9 µM
[51]
  TGI: > 100 µM
[52]
  TGI: > 100 µM
